Patent US20100048577A1, “Method for treating benign prostate hyperplasia using resveratrol” (priority 2008, published 2010)

Legend:
[1] = test system: induced BPH (prostate weight/body weight ratio); experiment: Testosterone enanthate induced BPH in rats, prostate weight after 29 days of treatment (Example 1); type: in vivo; conditions: Sprague Dawley rats, finasteride 10 mg s.c., resveratrol 1 g/kg in diet, saw palmetto 625 mg/kg in diet
Description: Sexually mature Sprague Dawley rats were given two, intramuscular injections of testosterone enanthate, at 25 mg. This induced BPH.
Animals were then divided into different groups. A first group of 5 animals received finasteride, via subcutaneous injection at a dose of 10 mg. A second group received 1 g/kg of body weight of resveratrol, mixed into their diet. A third group received saw palmetto, at 625 mg/kg, mixed into their diet. The control group received the vehicle for the active material only with no active ingredient.
Following 29 days of treatment, all animals were sacrificed. Prostates were dissected free of fat, and weighed.
The injection of the testosterone enanthate increased the prostate weight/body weight ratio by about 2-fold.

[2] = test system: BPH (prostate weight/body weight indices); experiment: Cure or prevention of testosterone enanthate induced BPH, fortified diets, prostate weight/body weight index at day 29 (Example 2); type: in vivo; conditions: testosterone enanthate 25 mg i.m. days 1 and 7, diet with 1 g/kg resveratrol or trimethoxystilbene, 625 mg/kg saw palmetto, or finasteride 10 mg s.c. on 5 days
Description: These experiments were designed to determine whether resveratrol and trimethoxystilbene could cure or prevent BPH. Experimental animals received diets that were fortified with one of trans-resveratrol (1 g/kg), trimethoxystilbene (1 g/kg), or saw palmetto (625 mg/kg). An additional group of animals received injections of finasteride fourteen days after the start of the experiment. The animals received one, subcutaneous injection of 10 mg of finasteride in 0.1 ml dimethyl sulfoxide on 5 consecutive days. All animals, except the absolute control group, received injections of testosterone enanthate (25 mg, in 0.1 ml mineral oil). The injections were administered intramuscularly, on days 1 and 7 of the study. The absolute control group received intramuscular injections of 0.1 ml of mineral oil. At day 29, all test animals were weighed, sacrificed and their prostates were dissected free of fat and weighed. Prostate weight/body weight indices were determined for each group.

[3] = test system: Normal human prostate endothelial cells (ATCC CRL-11611); experiment: Gene expression of normal human prostate cells treated or not treated with resveratrol (Example 3); type: cell-based; conditions: resveratrol 50 μM, 48 hours
Description: Normal human prostate endothelial cells were obtained from the ATCC (CRL-11611), and were either treated or not treated with resveratrol, at 50 μM, for 48 hours. Gene expression of the cells was compared, via standard methods.

[4] = test system: PSA; experiment: PSA expression in prostate tissue of the experimental animals by quantitative PCR (Example 4); type: in vivo; conditions: animals treated as in Example 2
Description: In additional experiments following the details of example 2, supra, levels of PSA expression were tested.
Prostate tissue from the experimental animals was subjected to quantitative PCR, using well known methods. The expression of PSA was compared in untreated, and in resveratrol, and trimethoxystilbene treated animals.

| Compound | effect on testosterone enanthate induced BPH (increased prostate weight/body weight ratio) [1] | prostates (weight) compared with controls [2] | share of the 376 genes known to be involved with apoptosis showing significant down regulation following treatment [3] | level of PSA expression relative to that of the controls [4] |
| --- | --- | --- | --- | --- |
| CC(C)(C)NC(=O)[C@H]1CC[C@H]2[C@@H]3CC[C@H]4NC(=O)C=C[C@]4(C)[C@H]3CC[C@]12C [finasteride, Finasteride, reference compound] | completely reversed the effect | indistinguishable from controls | – | – |
| Oc1ccc(/C=C/c2cc(O)cc(O)c2)cc1 [resveratrol, trans-3,5,4′-trihydroxystilbene] | reversed the induced BPH | indistinguishable from controls | about 10% | about ⅓ |
| COc1ccc(/C=C/c2cc(OC)cc(OC)c2)cc1 [trimethoxystilbene] | – | indistinguishable from controls | – | about ⅓ |
